Some test systems named below: SK-MEL-28 melanoma; SF-539 CNS; RXF 393 renal; NCI-H522 lung; OVCAR-5 ovarian; NCI/ADR-RES ovarian; UACC-257 melanoma; T-47D breast; OVCAR-8 ovarian; UACC-62 melanoma.
Common to all, as to experiment: NCI anticancer screen, dose series, 48 h

Each structure is given as a SMILES string. Values joined by “and” are separate entries in the source; they are usually repeats but may differ in a detail not shown here. Identical values can stand only once.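 Each compound was tested at five concentrations against cells in 96-well plates for 48 hours. GI50: concentration for 50% inhibition of growth. The concentration for full growth arrest is given as TGI.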

In the case of `O=c1[nH]c2ccccc2n1C1CCN(CCOc2ccccc2)CC1`, the GI50 is 47.9 µM in the experiment on SK-MEL-28 melanoma; 44.9 µM in the experiment on SF-539 CNS; 45 µM in the experiment with RXF 393 renal; 56.9 µM in the experiment with NCI-H522 lung; 47.8 µM with OVCAR-5 ovarian; 11.5 µM with NCI/ADR-RES ovarian. Moreover, the GI50 is 70.7 µM in the experiment with UACC-257 melanoma, 15.7 µM with T-47D breast, 13.3 µM in the experiment with OVCAR-8 ovarian and 50.5 µM in the experiment with UACC-62 melanoma. In addition, the TGI in the experiment with SK-MEL-28 melanoma, with SF-539 CNS, in the experiment on RXF 393 renal, with NCI-H522 lung, in the experiment on OVCAR-5 ovarian and with NCI/ADR-RES ovarian was greater than 100 µM throughout. Moreover, the TGI in the experiment on UACC-257 melanoma, in the experiment with T-47D breast, with OVCAR-8 ovarian and in the experiment with UACC-62 melanoma was greater than 100 µM in each case.
On to `COc1cc(/C=C/c2ccnc3ccccc23)cc(OC)c1OC`, for which the GI50 is 4.06 µM in the experiment on SK-MEL-28 melanoma; 1.97 µM in the experiment with RXF 393 renal; 1.25 µM in the experiment with NCI/ADR-RES ovarian; 6.58 µM in the experiment with T-47D breast; 4.17 µM in the experiment with OVCAR-8 ovarian. Besides, the TGI in the experiment on SK-MEL-28 melanoma is 37.2 µM and > 100 µM; in the experiment on SF-539 CNS, 11.5 µM and 23.3 µM; in the experiment on RXF 393 renal it was 15.3 µM and 8.02 µM; with NCI-H522 lung, 46.8 µM and 7.39 µM; in the experiment on OVCAR-5 ovarian, 95 µM and > 100 µM; in the experiment on NCI/ADR-RES ovarian it was 9.32 µM and 4.98 µM. Also, the TGI in the experiment with UACC-257 melanoma is 91.6 µM and > 100 µM; in the experiment on T-47D breast it was 80.4 µM and > 100 µM; in the experiment on OVCAR-8 ovarian it was greater than 100 µM; with UACC-62 melanoma it was 30.7 µM and > 100 µM.
On to `C(=C\c1ccc(OCC2CO2)cc1)/C1=NCOC1` (stereo not given), for which the GI50 is 6.3 µM in the experiment with SK-MEL-28 melanoma; 9.48 µM with SF-539 CNS; 2.05 µM in the experiment on RXF 393 renal; 3.13 µM in the experiment with NCI-H522 lung; 16.4 µM with OVCAR-5 ovarian; 3.86 µM with NCI/ADR-RES ovarian. Moreover, the GI50 with UACC-257 melanoma is 6.15 µM; in the experiment with T-47D breast, 3.57 µM; in the experiment on OVCAR-8 ovarian, 5.81 µM; with UACC-62 melanoma, 12.2 µM. In addition, the TGI stood at 21.4 µM in the experiment on SK-MEL-28 melanoma; 25.8 µM in the experiment with SF-539 CNS; 6.34 µM in the experiment with RXF 393 renal; 13.1 µM with NCI-H522 lung; 37.1 µM with OVCAR-5 ovarian; 14.9 µM with NCI/ADR-RES ovarian. The TGI with UACC-257 melanoma was determined as 26.6 µM; with T-47D breast it was 18.6 µM; in the experiment with OVCAR-8 ovarian it was 28 µM; with UACC-62 melanoma it was 26.5 µM.
In the case of `COc1ccc2nc3ccccc3c(NCc3ccccc3)c2c1`, the GI50 in the experiment with SK-MEL-28 melanoma is 1.75 µM; in the experiment on SF-539 CNS, 1.94 µM; in the experiment on RXF 393 renal, 1.53 µM; with NCI-H522 lung it was 1.77 µM; in the experiment with OVCAR-5 ovarian it was 2.25 µM; in the experiment on NCI/ADR-RES ovarian, 2.09 µM. The GI50 is 2.16 µM in the experiment on UACC-257 melanoma, 2.69 µM with T-47D breast, 2.76 µM with OVCAR-8 ovarian and 2.29 µM in the experiment on UACC-62 melanoma. For the same molecule, the TGI turned out to be 3.57 µM in the experiment with SK-MEL-28 melanoma; 3.96 µM in the experiment with SF-539 CNS; 3.13 µM in the experiment on RXF 393 renal; 4.6 µM in the experiment with NCI-H522 lung; 7.35 µM in the experiment with OVCAR-5 ovarian; 6.69 µM in the experiment on NCI/ADR-RES ovarian. The TGI was found to be 4.88 µM with UACC-257 melanoma, 8.89 µM in the experiment on T-47D breast, 9.32 µM with OVCAR-8 ovarian and 6.05 µM in the experiment with UACC-62 melanoma.
With `CCOC(=O)c1cc(C(=O)c2cc(OC)c(OC)c(OC)c2)n2ccc(-c3cc[n+](CC(=O)c4cc(OC)c(OC)c(OC)c4)cc3)cc12`, the GI50 was 1.75 µM in the experiment with SK-MEL-28 melanoma; 1.61 µM in the experiment on SF-539 CNS; 1.66 µM in the experiment with RXF 393 renal; 2.13 µM in the experiment with NCI-H522 lung; 1.84 µM with OVCAR-5 ovarian; greater than 100 µM in the experiment on NCI/ADR-RES ovarian. Besides, the GI50 in the experiment with UACC-257 melanoma is 3.13 µM; with T-47D breast it was 1.94 µM; in the experiment with OVCAR-8 ovarian it was 2.33 µM; in the experiment on UACC-62 melanoma it was 2.32 µM. For the same molecule, the TGI was 3.6 µM with SK-MEL-28 melanoma; 3.3 µM in the experiment on SF-539 CNS; 3.48 µM in the experiment on RXF 393 renal; 5.04 µM with NCI-H522 lung; 5.24 µM with OVCAR-5 ovarian; greater than 100 µM in the experiment with NCI/ADR-RES ovarian. Besides, the TGI in the experiment on UACC-257 melanoma is 7.04 µM; in the experiment with T-47D breast, 4.85 µM; in the experiment on OVCAR-8 ovarian, 5.47 µM; with UACC-62 melanoma it was 5.72 µM.
Turning to `OCC1OC(n2cnc3c(NCc4ccco4)ncnc32)C(O)C1O` (stereo not given), the GI50 in the experiment on SK-MEL-28 melanoma is 8.72 µM; in the experiment with SF-539 CNS, 3.07 µM; in the experiment with RXF 393 renal it was 2.21 µM; in the experiment with NCI-H522 lung it was 1.34 µM; in the experiment with OVCAR-5 ovarian it was 4.76 µM; with NCI/ADR-RES ovarian it was 0.675 µM. Moreover, the GI50 was 52.5 µM in the experiment with UACC-257 melanoma, 2.43 µM in the experiment on T-47D breast, 0.16 µM in the experiment on OVCAR-8 ovarian and 3.34 µM with UACC-62 melanoma. Also, the TGI with SK-MEL-28 melanoma was greater than 100 µM; with SF-539 CNS, 13.6 µM; in the experiment with RXF 393 renal, 15 µM; in the experiment on NCI-H522 lung, 22 µM; in the experiment with OVCAR-5 ovarian, greater than 100 µM; in the experiment with NCI/ADR-RES ovarian, greater than 35.7 µM. The TGI with UACC-257 melanoma was greater than 100 µM; with T-47D breast, 11.3 µM; in the experiment on OVCAR-8 ovarian, 3.6 µM; in the experiment with UACC-62 melanoma it was 29.7 µM.
Take `Cc1nn(-c2ccccc2)c2nc(C)n(-c3ccc(Br)cc3)c(=O)c12`: the GI50 in the experiment on SK-MEL-28 melanoma was 3.46 µM; in the experiment on SF-539 CNS, 0.35 µM; in the experiment with RXF 393 renal it was 0.286 µM; in the experiment on NCI-H522 lung, 0.326 µM; with OVCAR-5 ovarian, 1.99 µM; in the experiment with NCI/ADR-RES ovarian, 0.449 µM. The GI50 in the experiment with UACC-257 melanoma is 0.768 µM; with T-47D breast, 0.427 µM; in the experiment on OVCAR-8 ovarian, 0.965 µM; with UACC-62 melanoma it was 0.428 µM. Moreover, the TGI is greater than 100 µM in the experiment with SK-MEL-28 melanoma; 7.09 µM in the experiment on SF-539 CNS; 0.972 µM in the experiment with RXF 393 renal; 18.6 µM in the experiment on NCI-H522 lung; greater than 100 µM in the experiment with OVCAR-5 ovarian; greater than 100 µM in the experiment with NCI/ADR-RES ovarian. For the same molecule, the TGI in the experiment on UACC-257 melanoma was greater than 100 µM; in the experiment with T-47D breast, greater than 70.5 µM; with OVCAR-8 ovarian, greater than 100 µM; with UACC-62 melanoma, greater than 100 µM.

Source of the values: PubChem BioAssay (NCI).
